The text below walks through data of patent publication US12636342B2, “TARS derived from Akkermansia muciniphila or fragment thereof, and use thereof” (KOREA RESEARCH INSTITUTE OF BIOSCIENCE AND BIOTECHNOLOGY, priority 2020, dated 2026).

For data set [1], the system named is mouse bone marrow-derived macrophages (BMDMs). Description: ELISA of immune cytokine secretion in LPS-treated BMDMs (inflammatory environment). The format is cell-based. As to the method: To determine whether AmTARS affects immune cytokine secretion when cellular inflammation was induced, mouse bone marrow-derived macrophages BMDMs as mouse-derived immune cells and human macrophages THP1 as human-derived immune cells were cultured by way of the same method as in Example 2.
Specifically, the cultured BMDMs and THP1 were treated with lipopolysaccharide (LPS) to induce an inflammatory response and were simultaneously treated with AmTARS at 0.1 μM, 0.2 μM, and 0.5 μM for 24 h to obtain cell cultures. The obtained cell cultures were analyzed for immune cytokine secretion by way of the same method as in Example 2.
Next, BMDMs were treated with LPS to create an inflammatory environment by way of the same method as in Example 3, and then treated with each TARS (AmTARS, BfTARS, eTARS, and hTARS) to investigate the secretion of IL-10.
An inflammatory environment was created through LPS in BMDMs by way of the same method as in Example 3, and then the cells were treated with the four types of fragments, and the immune cytokine secretion was determined by ELISA.
A general note: An ELISA detects its analyte on a solid surface through an enzyme-linked reagent.

In the next data set the test system is BMDMs. Description: AmTARS-stimulated BMDMs pre-treated with kinase/CREB inhibitors. The format is cell-based, mouse. The settings on record: for IL-10 production by AmTARS: BMDMs pre-treated 1 h with inhibitor (10 μM; 666-15 1 μM) before AmTARS 24 h; for macrophage polarization (CD206 positive) by AmTARS: BMDMs pre-treated 1 h with inhibitor before AmTARS 24 h. As for the experimental part: (A and B) Analysis of key molecules that inhibit the MAPK and PI3K/AKT signaling pathways. IL-10 produced by BMDMs pre-treated with inhibitors of ERK (PD98059, […]), p38 (SB203580, […]), MSK1/2 (SB747651A, 10 μM), CREB (666-15, 1 μM), PI3K (Wortmannin, 10 μM), and AKT1/2 (AKT1/2, 10 μM) for 1 h before treatment with either PBS or AmTARS for 24 h (n=6 per group) (A). Flow cytometry analysis of M2 macrophages in BMDMs pre-treated for 1 h with the indicated kinase inhibitors, before treatment with either PBS or AmTARS for 24 h (n=3 per group) (B). (C and D) Western blot analysis of MAPK signaling molecules in lysates of BMDMs (C) or THP1 cells (D) treated for different times with 0.5 μM AmTARS. (E) Western blot analysis of lysates of BMDMs pre-treated with α-IgG (Isotype, 1 μg ml-1) or α-TLR2 (1 μg ml-1) for 1 h before treatment with PBS, AmTARS (0.5 μM), or Pam3 (0.5 μM) for 30 min. (F and G) Western blot analysis of PI3K/AKT signaling molecules in lysates of BMDMs (F) or THP1 cells (G) treated with 0.5 μM AmTARS. […] Activation of AKT, ERK, and CREB was measured by western blot analysis of lysates of THP1 cells pre-treated with α-IgG, α-TLR1, α-TLR2, or α-TLR6 (1 μg ml-1) for 1 h before treatment for 30 min with PBS or AmTARS (0.5 µM). […] P-values were calculated using an unpaired two-tailed Student's t-test. Data shown in (C-H) are representative and repeated at least three times.
To identify the signaling pathway triggered by AmTARS, we first evaluated kinases and CREB. IL-10 production and M2 polarization were measured in BMDMs treated with inhibitors of ERK (PD98059), p38 (SB203580), MSK1/2 (SB747651A), CREB (666-15), PI3K (Wortmannin) and AKT (AKT1/2) before subsequent stimulation with AmTARS.

For data set [2], the system named is mouse bone marrow-derived macrophages (BMDMs). Kind of data set: ELISA of immune cytokine secretion in BMDMs under normal conditions. The format is cell-based. The settings on record: normal (non-inflammatory) conditions, 24 h. As to the method: Specifically, mouse bone marrow-derived macrophages (BMDMs) as mouse-derived immune cells were extracted from the mouse thighbone and shinbone, and then cultured in DMEM containing 10% fetal bovine serum (FBS) and antibiotics. Human macrophages (THP1) as human-derived immune cells were cultured in RPMI media containing 10% FBS and antibiotics.
The cultured cells were treated with AmTARS at 0.1 μM, 0.2 μM, and 0.5 μM for 24 h to obtain cell cultures. For cell removal, the media were centrifuged at 500×g for 10 min to obtain supernatants, which were then analyzed using an ELISA set (mouse interleukin (IL)-6, mouse IL-10, mouse tumor necrosis factor (TNF)-α, human IL-6, human IL-10, human TNF-α; BD Biosciences) to investigate the secretion of mouse- and human-derived immune cytokines. […]

Data set [3] can be described thus: Aminoacylation reaction (malachite green phosphate assay). Type of data set: biochemical. The settings on record: L-threonine, ATP, 30 min, free Pi at 620 nm. As for the experimental part:
TARS is an […] involved in protein synthesis, and the domain and site involved in its function are well known. The constructed deletion mutants were confirmed to have deletions of parts irrelevant to the function, but the aminoacylation reaction experiment was conducted to determine whether the deletion mutants performed the intrinsic functions thereof appropriately.
Specifically, a 2× reaction solution (100 mM Tris-HCl (pH 7.5), 20 mM MgCl2, 200 mM NaCl, 200 mM KCl, 2 mM DTT, 500 μM ATP, and 5 mM L-threonine) was prepared, and 25 μL of a reaction solution, 20 μL of distilled water, and 5 μL of protein were added to make a final 50 μL volume, followed by incubation for 30 min. Thereafter, a reaction was conducted using a malachite green phosphate assay kit (Bioassay Systems) for 30 min, and the free monophosphate group (Pi) was measured at a wavelength of 620 nm.

Setting [4] is: LPS-induced inflammatory environment, 24 h.

Regarding “R2: Functional site 2 peptide, SEQ ID NO: 4, residues 290-312 of SEQ ID NO: 1 (KLSQEGASCAELFNGLATGTIEG; Functional region 2(290˜312))”, the “secretion of IL-6” value in data set [1] (LPS, peptide 100 μM) is recorded as “reduced”; in data set [1] (LPS, peptide 300 μM) it was “reduced”; in data set [1] (setting [4]), “reduced”. The “secretion of IL-10” value in data set [1] (LPS, peptide 100 μM) is “increased”; in data set [1] (LPS, peptide 300 μM) it was “increased”; in data set [1] (setting [4]), “increased”.

As to `O=c1[nH]c2ccccc2n1C1CCN(Cc2ccc(-c3nc4cc5[nH]cnc5cc4nc3-c3ccccc3)cc2)CC1` [AKT1/2], in the data set with BMDMs, the “IL-10 production by AmTARS” value is recorded as “significant suppression” and the “macrophage polarization (CD206 positive) by AmTARS” value (from here on “macrophage polarization”) is listed as “significant suppression”.

Consider `C[S+]([O-])c1ccc(-c2nc(-c3ccncc3)c(-c3ccc(F)cc3)[nH]2)cc1` (stereo not shown) [SB203580], for which, in the data set with BMDMs, the “IL-10 production by AmTARS” value is reported as “significant suppression” and the “macrophage polarization” value is recorded as “significant suppression”.

`CCn1c(-c2nonc2N)nc2cncc(CNC3CCNCC3)c21` [SB747651A]: in the data set with BMDMs, the “IL-10 production by AmTARS” value was “significant suppression” and the “macrophage polarization” value is listed as “significant suppression”.

For the molecule `COc1cccc(-c2cc(=O)c3ccccc3o2)c1N` [PD98059], in the data set on BMDMs, the “IL-10 production by AmTARS” value is “significant suppression” and the “macrophage polarization” value is given as “significant suppression”.

B1: eTARS: TARS derived from E. coli (protein)
chain: MPVITLPDGSQRHYDHAVSPMDVALDIGPGLAKACIAGRVNGELVDACDLIENDAQLSIITAKDEEGLEIIRHSCAHLLGHAIKQLWPHTKMAIGPVIDNGFYYDVDLDRTLTQEDVEALEKRMHELAEKNYDVIKKKVSWHEARETFANRGESYKVSILDENIAHDDKPGLYFHEEYVDMCRGPHVPNMRFCHHFKLMKTAGAYWRGDSNNKMLQRIYGTAWADKKALNAYLQRLEEAAKRDHRKIGKQLDLYHMQEEAPGMVFWHNDGWTIFRELEVFVRSKLKEYQYQEVKGPFMMDRVLWEKTGHWDNYKDAMFTTSSENREYCIKPMNCPGHVQIFNQGLKSYRDLPLRMAEFGSCHRNEPSGSLHGLMRVRGFTQDDAHIFCTEEQIRDEVNGCIRLVYDMYSTFGFEKIVVKLSTRPEKRIGSDEMWDRAEADLAVALEENNIPFEYQLGEGAFYGPKIEFTLYDCLDRAWQCGTVQLDFSLPSRLSASYVGEDNERKVPVMIHRAILGSMERFIGILTEEFAGFFPTWLAPVQVVIMNITDSQSEYVNELTQKLSNAGIRVKADLRNEKIGFKIREHTLRRVPYMLVCGDKEVESGKVAVRTRRGKDLGSMDVNEVIEKLQQEIRSRSLKQLEE
modifications: 6xHis tag; misc_feature 1..1929 Escherichia coli TARS
As to B1, in data set [2], the “secretion/production of IL-10” value is recorded as “no anti-inflammatory immune function”. In addition, in data set [1] (setting [4]), the “secretion of IL-10” value was “not significantly increased”.

B2: BfTARS: TARS derived from Bacteroides fragilis (protein)
chain: MIKITFPDGSVREYNEGVNGLQIAESISSRLAQDVLACGVNGEIYDLGRPINEDASVVLYKWEDEQGKHAFWHTSAHLLAEALQELYPGIQFGIGPAIENGFYYDVDPGEAVIKEADLPAIEAKMAELVAKKEAVVRRDIAKGDALKMFGDRGETYKCELISELEDGHITTYTQGDFTDLCRGPHLMTTAPIKAIKLTSVAGAYWRGHEDRKMLTRIYGITFPKKKMLDEYLALMEEAKKRDHRKIGKEMQLFMFSDTVGKGLPMWLPKGTALRLRLQDFLRRIQTRYDYQEVITPPIGNKLLYVTSGHYAKYGKDAFQPIHTPEEGEEYFLKPMNCPHHCEIYKNFPRSYKDLPLRIAEFGTVCRYEQSGELHGLTRVRSFTQDDAHIFCRPDQVKGEFLRVMDIISIVFRSMDFDNFEAQISLRDKVNREKYIGSDENWEKAEQAIIEACEEKGLKAKIEYGEAAFYGPKLDFMVKDAIGRRWQLGTIQVDYNLPERFELEYMGSDNQKHRPVMIHRAPFGSMERFVAVLIEHTAGKFPLWLTPEQVVILPISEKFNEYAEKVKTYLKMKEIRAIVDDRNEKIGRKIRDNEMKRIPYMLIVGEKEAENGEVSVRRQGEGDKGTMKFEEFGEILNEEVQNMINKW
modifications: 6xHis tag; misc_feature 1..1941 Bacteroides fragilis TARS
Take B2: the “secretion of IL-10” value in data set [1] (setting [4]) is reported as “not significantly increased”.

B3: Akkermansia muciniphila-derived YARS (protein)
chain: MTIDEQLDILMGGTAVVISREELKERLKLGRPLRVKLGVDPTAPDIHLGHTVAIEKLRQFQELGHQAVLLIGDFTATIGDPSGRSVTRPPLSREQVLENAETYTKQAFKILDRDKTEIVYNGDWFRKMTYEEVLKLNSRVTMQQMLAREDFKARVEGGKEVRLHEMQYPIMQGWDSVEIRADVELGGTDQLFNILVGRDLQKEEGMLPQIAMTMPLLEGLDGVRKMSKSYGNYVGVDESPEMMFGKMMSASDELMDRYYLVLLGEKRDMGLHPMEAKKLLAWKITARYHDSAAADAARSDWETRFSKRDLAAADLPEVEIASLPADMNALALVSFLFENVFQVKKSNGVLRKEHFTPGAIQLNDVKMTDPSAVLELAPGSILRLSKKHAVRFK
modifications: 6xHis tag; misc_feature 1..1182 Akkermansia muciniphila YARS
notes: Akkermansia muciniphila tyrosyl-tRNA synthetase, used as control
With B3, the “aminoacylation reaction / enzymatic activity” value in data set [3] was “no reaction”.

B4: hTARS: TARS derived from Homo sapiens (protein)
chain: MFEEKASSPSGKMGGEEKPIGAGEEKQKEGGKKKNKEGSGDGGRAELNPWPEYIYTRLEMYNILKAEHDSILAEKAEKDSKPIKVTLPDGKQVDAESWKTTPYQIACGISQGLADNTVIAKVNNVVWDLDRPLEEDCTLELLKFEDEEAQAVYWHSSAHIMGEAMERVYGGCLCYGPPIENGFYYDMYLEEGGVSSNDFSSLEALCKKIIKEKQAFERLEVKKETLLAMFKYNKFKCRILNEKVNTPTTTVYRCGPLIDLCRGPHVRHTGKIKALKIHKNSSTYWEGKADMETLQRIYGISFPDPKMLKEWEKFQEEAKNRDHRKIGRDQELYFFHELSPGSCFFLPKGAYIYNALIEFIRSEYRKRGFQEVVTPNIFNSRLWMTSGHWQHYSENMFSFEVEKELFALKPMNCPGHCLMFDHRPRSWRELPLRLADFGVLHRNELSGALTGLTRVRRFQQDDAHIFCAMEQIEDEIKGCLDFLRTVYSVFGFSFKLNLSTRPEKFLGDIEVWDQAEKQLENSLNEFGEKWELNSGDGAFYGPKIDIQIKDAIGRYHQCATIQLDFQLPIRFNLTYVSHDGDDKKRPVIVHRAILGSVERMIAILTENYGGKWPFWLSPRQVMVVPVGPTCDEYAQKVRQQFHDAKFMADIDLDPGCTLNKKIRNAQLAQYNFILVVGEKEKISGTVNIRTRDNKVHGERTISETIERLQQLKEFRSKQAEEEF
modifications: 6xHis tag; misc_feature 1..2175 Homo sapiens TARS
On to B4, for which the “secretion of IL-10” value in data set [1] (setting [4]) is given as “not significantly increased”.
